Literature values, collected in patent publication US20220289705A1, “PROCESS FOR THE PREPARATION OF RIDINILAZOLE AND CRYSTALLINE FORMS THEREOF” (Summit (Oxford) Limited, priority 2019, published 2022).

Tested on: Clostridioides difficile
Conditions: Phase 2 clinical trial; CDI recurrence

Structure (SMILES)	rates of recurrent disease [%]
c1cc(-c2nc3cc(-c4ccc5[nH]c(-c6ccncc6)nc5c4)ccc3[nH]2)ccn1 [ridinilazole, 2,2′-di(pyridin-4-yl)-1H,1′H-5,5′-bibenzo[d]imidazole]	14.3
CN[C@H](CC(C)C)C(=O)N[C@H]1C(=O)N[C@@H](CC(N)=O)C(=O)N[C@H]2C(=O)N[C@H]3C(=O)N[C@H](C(=O)N[C@H](C(=O)O)c4cc(O)cc(O)c4-c4cc3ccc4O)[C@H](O)c3ccc(c(Cl)c3)Oc3cc2cc(c3O[C@@H]2O[C@H](CO)[C@@H](O)[C@H](O)[C@H]2O[C@H]2C[C@](C)(N)[C@H](O)[C@H](C)O2)Oc2ccc(cc2Cl)[C@H]1O [vancomycin]	34.8
